US8748426B2, “Inhibitors of diacylglycerol acyl transferase” (Piramal Enterprises Limited, priority 2009, dated 2014)

Legend:
Swiss mice = assay: Fat tolerance test (ftt) in mice; assay type: in vivo; details: 3 mg/kg, p.o.; olive oil load 10 mL/kg 30 min after treatment; AUC0-4h, vehicle group as 100%
Experimental: Swiss mice of age 4-5 weeks and body weight between 25-30 g were selected for study. After fasting for about 16 h, the animals were divided into three groups based on plasma triglyceride level with same mean and variation. Animals were administered with either vehicle [(1% tween 80 in 0.5% carboxy methylcellulose (CMC)]) or with compounds of the present invention (3 mg/kg, p.o.). Compounds of the present invention were prepared as suspension in 0.5% carboxy methylcellulose (CMC) with 1% tween 80. Olive oil (fat) load (10 mL/kg, p.o.) was given, 30 min after the treatment. Blood samples were collected at 1, 2, 3 and 4 h after the fat (olive oil) load. Plasma was separated and triglyceride level was measured using commercially available kits (diasys, Germany). Percentage reduction in area under curve (AUC0-4h) of the test compound was calculated by taking AUC0-4h of the vehicle group as 100%.

hDGAT1 = biological target: T1, hDGAT1 (Homo sapiens, UniProt O75907); assay: In-vitro DGAT1 assay (14C oleoyl CoA, hDGAT1 microsomes from Sf9 cells); details: read-out: % Inhibition of hDGAT1
T1 sequence (O75907 1-488): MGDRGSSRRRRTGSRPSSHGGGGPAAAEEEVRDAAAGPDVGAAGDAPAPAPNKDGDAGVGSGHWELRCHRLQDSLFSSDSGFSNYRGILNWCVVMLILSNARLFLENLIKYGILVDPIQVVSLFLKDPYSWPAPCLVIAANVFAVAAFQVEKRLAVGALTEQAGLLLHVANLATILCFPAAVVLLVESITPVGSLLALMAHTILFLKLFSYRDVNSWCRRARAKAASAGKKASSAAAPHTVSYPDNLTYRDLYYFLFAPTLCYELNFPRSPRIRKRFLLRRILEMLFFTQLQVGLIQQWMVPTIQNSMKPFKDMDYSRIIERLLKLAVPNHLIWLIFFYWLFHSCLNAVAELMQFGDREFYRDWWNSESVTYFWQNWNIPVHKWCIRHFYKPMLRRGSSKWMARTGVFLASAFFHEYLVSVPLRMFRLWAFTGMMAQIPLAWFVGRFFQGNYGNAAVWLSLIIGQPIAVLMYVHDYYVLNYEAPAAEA

inhibition at 1 µM (hDGAT1)	Compound	% Reduction (Plasma triglyceride) (Swiss mice)
> 50%	CC(C)[C@@H](C(=O)O)N1Cc2ccc(-c3ccc(NC(=O)c4cccc(Oc5ccccc5)c4)cc3)cc2C1=O [Example 148, (S)-3-Methyl-2-(1-oxo-6-(4-(3-phenoxybenzamido)phenyl)isoindolin-2-yl)butanoic acid]	++ (>50% Reduction)
> 50%	CCCCCc1ccc(C(=O)Nc2ccc(-c3ccc4c(c3)C(=O)N([C@H](C(=O)O)C(C)C)C4)nc2)cc1 [Example 406, (S)-3-Methyl-2-(1-oxo-6-(5-(4-pentylbenzamido)pyridin-2-yl)isoindolin-2-yl)butanoic acid]	++ (>50% Reduction)
> 50%	CC(C)[C@@H](C(=O)O)N1Cc2ccc(-c3ccc(NC(=O)c4ccc5ccccc5c4)cn3)cc2C1=O [Example 410, (S)-2-(6-(5-(2-Naphthamido)pyridin-2-yl)-1-oxoisoindolin-2-yl)-3-methylbutanoic acid]	++ (>50% Reduction)
